According to US7060821B2, “Osteoclast differentiation inhibitors” (Mercian Corporation, priority 2002, dated 2006):
Converted amounts (≈) assume the structure as drawn.

How the values were obtained:
[1] = system: bone marrow cells (differentiation into osteoclasts); experiment: Osteoclast differentiation inhibition: count of tartaric acid-resistant acid phosphatase-positive cells; format: cell-based, C57BL/6 mouse
Method: Bone marrow cells were collected from a C57BL/6mouse (female, 6 weeks old) and suspended in RPMI1460 medium that contains 10% fetal calf serum, 1 mM pyruvic acid, 0.1 mM non-essential amino acids (manufactured by Gibco), 500 μM 2-mercaptoethanol, 200 ng/ml parathyroid hormone related protein (PTHrP) and 50 μg/ml L-ascorbic acid and 1 ml of the suspension adjusted to a cell population of 1.5×10^6 cells/well was inoculated on a 24-well microplate. At the same time a test sample was added in appropriate amounts. On days 2 and 4 from the start of the cultivation, half the amount of the medium is exchanged with fresh medium containing the test sample. On day 7 from the start of the cultivation, the medium is removed by suction and the cells are fixed with an acetone:methanol (1:1) solution, to thereby allow tartaric acid-resistant acid phosphatase-positive cells stained. That is, 0.4 ml of a 0.2-M acetate buffer (pH 5.2) containing a staining fluid (0.1 mg/ml Naphthol AS-MX phosphate (Sigma AB), 0.6 mg/ml Fast red violet LB sal (Sigma AB) and 20 mM tartaric acid is added to each well and the resultants are allowed to react at 37° C. for 1 hour. After color development, the number of tartaric acid-resistant acid phosphatase-positive cells, which is an index of differentiation into osteoclasts, is measured under a microscope.
When the test sample contains a substance that is effective for inhibition of osteoclast differentiation, the occurrence of tartaric acid-resistant acid phosphatase-positive cells is inhibited. From changes in the above-mentioned number of cells depending on the concentration of the test sample, an effective concentration range of the test sample can be obtained.

L1210 (leukemia) = experiment: Growth inhibition (MTT) of L1210 cells; format: cell-based, murine; settings: Mus musculus, 48 hours, read-out: 50% growth inhibition concentration
Method: (§1) Note that the tests were performed as follows. Various kinds of murine cancer cells (L1210 (leukemia)), Colon 26 (colon cancer), B16BL6 (malignant melanoma)) were suspended in RPMI1640 medium containing 10% fetal calf serum and adjusted to 2×10^4 cells/well and 0.1 ml of each of the suspensions was seeded on a 96-well plate. At the same time, a predetermined amount of the substance F-1490 was added and the resultants were cultivated at 37° C. for 48 hours in the air containing 5% CO2. Further, 10 μl of 0.5% MTT (3-[4,5-dimethylthiazol-2-yl] […] tetrazolium bromide) was added and the resultants were cultivated for 4 hours. After the cultivation, 0.1 ml of 10% SDS-0.01N hydrochloric acid was added and absorbance at 570 nm was measured to determine 50% growth inhibition concentration.

Colon 26 (colon cancer) = experiment: Growth inhibition (MTT) of Colon 26 cells; format: cell-based, murine; settings: Mus musculus, Colon26 cells, 48 hours, read-out: 50% growth inhibition concentration
Method: as §1

[2] = system: B16BL6 (malignant melanoma); experiment: Growth inhibition (MTT) of B16BL6 cells; format: cell-based, murine; settings: Mus musculus, B16-BL6, 48 hours, read-out: 50% growth inhibition concentration
Method: as §1

IC50 (L1210 (leukemia)): > 50 µg/mL
IC50 (Colon 26 (colon cancer)): > 50 µg/mL
IC50 [2]: > 50 µg/mL
SMILES: O=C(O)c1cccc2c1NC1CCCCC1(O)O2 (centres unmarked) [Substance F-1490-A]
IC50 ([1]; Mus musculus, Table 1, osteoclast differentiation test, read-out: 50% growth inhibition concentration): 0.65 µg/mL (≈ 2.61 µM)
inhibition at 0.2 µg/mL ([1]; Osteoclast, 168 h, concentration 0.20 μg/ml, day 7, PTHrP-stimulated mouse bone marrow cells, read-out: Inhibition rate of differentiation into osteoclasts (%)): 2%
inhibition at 0.78 µg/mL ([1]; Osteoclast, 168 h, concentration 0.78 μg/ml, day 7, PTHrP-stimulated mouse bone marrow cells, read-out: Inhibition rate of differentiation into osteoclasts (%)): 63%
inhibition at 3.1 µg/mL ([1]; Osteoclast, 168 h, concentration 3.10 μg/ml, day 7, PTHrP-stimulated mouse bone marrow cells, read-out: Inhibition rate of differentiation into osteoclasts (%)): 74%
inhibition at 12.5 µg/mL ([1]; Osteoclast, 168 h, concentration 12.50 μg/ml, day 7, PTHrP-stimulated mouse bone marrow cells, read-out: Inhibition rate of differentiation into osteoclasts (%)): 87%
